Experimental data taken from the supplement of paper PMC10307832.

Assays:
Test in all cases: relative viability (nuclei count vs DMSO), 5 days (fraction); higher = more cells survive
[1] = compound: CC(C)C[C@H](NC(=O)[C@H](CCc1ccccc1)NC(=O)CN1CCOCC1)C(=O)N[C@@H](Cc1ccccc1)C(=O)N[C@@H](CC(C)C)C(=O)[C@@]1(C)CO1 [Carfilzomib] + CC(C)C[C@H](NC(=O)[C@H](Cc1ccccc1)NC(=O)c1cnccn1)B(O)O [Bortezomib] (partner 0.002 µM)
Summary of the method: (§1)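 Nuclei were stained with Hoechst during a one-step fixation (final 0.05% Triton X-100, 1% formaldehyde, 1 ug/ml Hoechst) carried out 5 days after dosing, then counted on 4× images. The cells, lung cancer lines in 1536-well plates, had been dosed by pin tool the day after seeding with one drug alone or a fixed anchor-drug dose plus five library-drug doses (not always all listed) in √10 steps. Relative viability is the nuclei count in treated wells divided by that in vehicle wells, and each value is the median of duplicate plates.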

[2] = compound: C[C@@H](Oc1cc(-c2cnn(C3CCNCC3)c2)cnc1N)c1c(Cl)ccc(F)c1Cl [Crizotinib] + Nc1nc2[nH]cc(CCc3ccc(C(=O)N[C@@H](CCC(=O)O)C(=O)O)cc3)c2c(=O)[nH]1 [Pemetrexed] (partner 0.2 µM)
Summary of the method: as §1

[3] = compound: O=C(c1cc(Cc2n[nH]c(=O)c3ccccc23)ccc1F)N1CCN(C(=O)C2CC2)CC1 [Olaparib] + COc1cc2c(Oc3ccc(NC(=O)C4(C(=O)Nc5ccc(F)cc5)CC4)cc3F)ccnc2cc1OCCCN1CCOCC1 [Foretinib] (partner 0.25 µM)
Summary of the method: as §1

[4] = compound: O=C(c1cc(Cc2n[nH]c(=O)c3ccccc23)ccc1F)N1CCN(C(=O)C2CC2)CC1 [Olaparib] + Nc1ncn([C@H]2C[C@H](O)[C@@H](CO)O2)c(=O)n1 [Decitabine] (partner 2 µM)
Summary of the method: as §1

Cell Line | relative viability ([1]; first compound 0.001 µM) | relative viability ([1]; first compound 0.003162 µM) | relative viability ([1]; first compound 0.01 µM) | relative viability ([1]; first compound 0.03162 µM) | relative viability ([1]; first compound 0.1 µM) | relative viability ([2]; first compound 0.01 µM) | relative viability ([2]; first compound 0.03162 µM) | relative viability ([2]; first compound 0.1 µM) | relative viability ([2]; first compound 0.3162 µM) | relative viability ([2]; first compound 1 µM) | relative viability ([3]; first compound 0.08 µM) | relative viability ([3]; first compound 0.253 µM) | relative viability ([3]; first compound 2.53 µM) | relative viability ([3]; first compound 8 µM) | relative viability ([4]; first compound 0.08 µM) | relative viability ([4]; first compound 0.253 µM) | relative viability ([4]; first compound 2.53 µM) | relative viability ([4]; first compound 8 µM)
HCC-827 | 1.01 | 1.01 | 1.06 | 0.677 | 0.422 | 0.268 | 0.183 | 0.267 | 0.274 | 0.261 | 0.959 | 0.959 | 0.956 | 0.797 | 0.306 | 0.266 | 0.291 | 0.231
HOP-62 | 0.531 | 0.475 | 0.425 | 0.0851 | 0.0746 | 0.347 | 0.266 | 0.331 | 0.28 | 0.31 | 1.19 | 1.13 | 0.892 | 0.774 | 0.18 | 0.17 | 0.234 | 0.178
IA-LM | 0.843 | 0.673 | 0.584 | 0.0124 | 0.0142 |  |  |  |  |  | 1.36 | 0.978 | 1.06 | 1.02 |  |  |  | 
LC-2-ad | 0.947 | 1.08 | 0.482 | 0.132 | 0.0828 | 0.266 | 0.259 | 0.276 |  | 0.302 | 1.05 | 0.816 | 1.01 | 0.889 | 0.618 | 0.623 | 0.557 | 0.509
LCLC-97TM1 | 0.292 | 0.714 | 0.268 | 0.0483 | 0.0702 | 0.201 | 0.16 | 0.166 | 0.17 | 0.192 | 0.912 | 0.827 | 0.958 | 0.812 | 0.193 | 0.143 | 0.165 | 0.178
LCLC-103H | 1 | 1.14 | 0.678 | 0.294 | 0.27 | 0.493 | 0.47 | 0.447 | 0.461 | 0.444 | 1.13 | 0.652 | 0.732 | 0.673 | 0.626 | 0.727 | 0.674 | 0.626
LK-2 |  |  |  |  |  | 0.276 | 0.188 | 0.246 | 0.166 | 0.236 | 1.4 | 1.21 | 1.15 | 1.12 | 0.258 | 0.254 | 0.271 | 0.184
LOU-NH91 | 0.438 | 0.49 | 0.362 | 0.26 | 0.263 | 0.35 | 0.368 | 0.383 | 0.396 | 0.383 | 0.943 | 0.957 | 0.998 | 0.939 | 0.853 | 0.774 | 0.783 | 0.769
NCI-H358 |  |  |  |  |  | 0.174 | 0.168 | 0.172 | 0.18 | 0.173 | 0.962 | 0.66 | 0.675 | 0.64 | 0.148 | 0.157 | 0.23 | 0.138
NCI-H522 |  |  |  |  |  | 1.04 | 0.968 | 0.828 | 1.04 | 0.999 |  |  |  |  | 0.745 | 0.645 | 0.724 | 0.598
NCI-H727 | 0.72 | 0.77 | 0.795 | 0.3 | 0.147 |  |  |  |  |  | 0.843 | 1.06 | 0.911 | 0.703 | 0.908 | 0.858 | 0.893 | 0.805
NCI-H1299 | 0.997 | 1.09 | 1.02 | 0.986 | 0.156 |  |  |  |  |  | 1.13 | 1.07 | 1.11 | 1.07 |  |  |  | 
NCI-H1395 |  |  |  |  |  | 0.91 |  | 0.888 | 0.731 | 0.88 | 1.04 | 0.87 | 0.842 | 0.563 | 0.64 | 0.654 | 0.504 | 0.494
NCI-H1563 | 0.815 | 0.985 | 0.836 | 0.513 | 0.477 | 0.759 | 0.833 | 0.757 | 0.735 | 0.875 | 0.962 | 0.92 | 1.02 | 0.935 |  |  |  | 
NCI-H1623 |  |  |  |  |  |  |  |  |  |  | 0.954 | 0.88 | 0.814 | 0.647 |  |  |  | 
NCI-H1648 |  |  |  |  |  |  | 0.703 | 0.568 | 0.81 | 0.675 |  |  |  |  | 0.431 | 0.384 |  | 0.44
NCI-H1703 | 0.216 | 0.167 | 0.156 | 0.0967 | 0.129 |  |  |  |  |  | 0.469 | 0.328 | 0.333 | 0.364 |  |  |  | 
NCI-H1792 | 0.962 | 1 | 0.919 | 0.979 | 0.559 | 0.829 | 1.06 | 0.847 |  | 0.871 |  |  |  |  | 0.336 | 0.264 | 0.234 | 0.19
NCI-H1944 |  |  |  |  |  | 0.499 | 0.614 | 0.621 | 0.605 | 0.652 | 0.704 | 0.784 | 0.648 | 0.603 | 0.397 | 0.401 | 0.336 | 0.273
NCI-H2170 |  |  |  |  |  | 0.251 | 0.283 | 0.265 | 0.266 | 0.278 | 1.01 | 0.98 | 0.994 | 0.948 | 0.422 | 0.369 | 0.277 | 0.253
NCI-H2228 | 0.94 | 0.54 | 0.257 | 0.0941 | 0.156 | 0.338 | 0.324 | 0.296 | 0.352 | 0.317 | 0.884 | 0.767 | 0.805 | 0.765 |  |  |  | 
NCI-H2342 |  |  |  |  |  | 0.761 | 0.792 | 0.737 | 0.636 | 0.744 | 1.18 | 1.18 | 0.977 | 0.948 | 0.756 | 0.606 | 0.663 | 0.619
SK-MES-1 |  |  |  |  |  | 0.879 | 0.928 | 0.927 |  | 0.924 | 1.05 | 0.861 | 0.907 | 0.889 | 0.305 | 0.299 | 0.303 | 0.262
SW 900 |  |  |  |  |  | 0.505 | 0.437 | 0.493 | 0.476 | 0.466 | 0.999 | 0.744 | 0.994 | 0.659 | 0.355 | 0.331 | 0.413 | 0.355
